Reference: patent US10508077B2 (FORMA Therapeutics, Inc., priority 2015, dated 2019)

Molecular target: T1, Full length human recombinant HDAC8 protein (Homo sapiens, UniProt Q9BY41)
T1 construct: Full length human recombinant HDAC8 protein was expressed in baculoviral system; made in house
T1 sequence (Q9BY41 1-377): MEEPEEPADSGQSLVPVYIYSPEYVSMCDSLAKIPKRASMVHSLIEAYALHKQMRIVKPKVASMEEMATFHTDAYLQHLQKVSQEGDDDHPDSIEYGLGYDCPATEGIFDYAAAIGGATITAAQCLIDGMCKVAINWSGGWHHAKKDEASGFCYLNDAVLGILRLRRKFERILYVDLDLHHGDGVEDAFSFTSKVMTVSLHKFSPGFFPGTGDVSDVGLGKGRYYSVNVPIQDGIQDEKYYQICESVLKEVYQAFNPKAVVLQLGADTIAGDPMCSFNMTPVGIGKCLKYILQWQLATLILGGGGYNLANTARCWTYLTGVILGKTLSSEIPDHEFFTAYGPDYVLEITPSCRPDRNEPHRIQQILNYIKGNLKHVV
Experiment: In vitro histone deacetylase assay: enzymatic HDAC8 assay, electrophoretic mobility shift
Format: biochemical
Details: substrate RHKK(Ac)-NH2, 1 nM enzyme, compounds listed under IC50 range headings
Outline: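 Baculovirus-expressed full-length human HDAC8 (1 nM) deacetylated 2 µM fluorescent RHKK(Ac)-NH2 peptide in pH 7.5 HEPES, 1% DMSO, at 25 °C, with 12 compound concentrations at 3× spacing. SDS-quenched; product and substrate resolved by microfluidic electrophoresis, P/(S+P) converted to percent inhibition, and IC50 obtained by 4-parameter fit.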

IC50, < 1000 nM:
O=C(/C=C/c1ccccc1N1CCN(C(=O)Cc2cccs2)CC1)NO [Example I-196, (E)-N-hydroxy-3-(2-(4-(2-(thiophen-2-yl)acetyl)piperazin-1-yl)phenyl)acrylamide]
CCSCC(=O)N1CCN(c2ccccc2/C=C/C(=O)NO)CC1 [Example I-197, (E)-3-(2-(4-(2-(ethylthio)acetyl)pipera-zin-1-yl)phenyl)-N-hydroxyacrylamide]
Cc1cc(C(=O)N2CCN(c3ccccc3/C=C/C(=O)NO)CC2)n[nH]1 [Example I-198, (E)-N-hydroxy-3-(2-(4-(5-methyl-1H-pyrazole-3-carbonyl)piperazin-1-yl)phenyl)acrylamide]
Cn1cncc1C(=O)N1CCN(c2ccccc2/C=C/C(=O)NO)CC1 [Example I-199, (E)-N-hydroxy-3-(2-(4-(1-methyl-1H-imidazole-5-carbonyl)piperazin-1-yl)phenyl)acrylamide]
CS(=O)(=O)CCCC(=O)N1CCN(c2ccccc2/C=C/C(=O)NO)CC1 [Example I-201, (E)-N-hydroxy-3-(2-(4-(4-(methylsulfonyl)butanoyl)piperazin-1-yl)phenyl)acrylamide]
O=C(/C=C/c1ccccc1N1CCN(C(=O)c2ccc(F)cn2)CC1)NO [Example I-202, (E)-3-(2-(4-(5-fluoropicolinoyl)piperazin-1-yl)phenyl)-N-hydroxyacrylamide]
COc1cc(CC(=O)N2CCN(c3ccccc3/C=C/C(=O)NO)CC2)ccc1O [Example I-203, (E)-N-hydroxy-3-(2-(4-(2-(4-hydroxy-3-methoxyphenyl)acetyl)piperazin-1-yl)phenyl)acrylamide]
O=C(/C=C/c1ccccc1N1CCN(C(=O)C2CC(F)(F)C2)CC1)NO [Example I-205, (E)-3-(2-(4-(3,3-difluorocyclobutane-1-carbonyl)piperazin-1-yl)phenyl)-N-hydroxyacrylamide]
O=C(/C=C/c1ccccc1N1CCN(C(=O)c2ccc3c(c2)OCO3)CC1)NO [Example I-207, (E)-3-(2-(4-(benzo[d][1,3]dioxole-5-carbonyl)piperazin-1-yl)phenyl)-N-hydroxyacrylamide]
CN1CCCC(C(=O)N2CCN(c3ccccc3/C=C/C(=O)NO)CC2)C1 (stereo not shown) [Example I-209, (E)-N-hydroxy-3-(2-(4-(1-methylpiperidine-3-carbonyl)piperazin-1-yl)phenyl)acrylamide]
O=C(/C=C/c1ccccc1N1CCN(C(=O)Cc2ccc(Cl)cc2)CC1)NO [Example I-210, (E)-3-(2-(4-(2-(4-chlorophenyl)acetyl)piper-azin-1-yl)phenyl)-N-hydroxyacrylamide]
Cc1nc(CC(=O)N2CCN(c3ccccc3/C=C/C(=O)NO)CC2)c(C)s1 [Example I-211]
O=C(/C=C/c1ccccc1N1CCN(C(=O)c2ccc(OC(F)F)cc2)CC1)NO [Example I-212, (E)-3-(2-(4-(4-(difluoromethoxy)benzoyl)piperazin-1-yl)phenyl)-N-hydroxyacrylamide]
COc1ccc(C(=O)N2CCN(c3ccccc3/C=C/C(=O)NO)CC2)cc1F [Example I-213]
Cc1oc(-c2ccc(Cl)cc2)cc1C(=O)N1CCN(c2ccccc2/C=C/C(=O)NO)CC1 [Example I-214, (E)-3-(2-(4-(5-(4-chlorophenyl)-2-methylfuran-3-carbonyl)piperazin-1-yl)phenyl)-N-hydroxyacrylamide]
O=C(/C=C/c1ccccc1N1CCN(C(=O)c2ccc3[nH]nnc3c2)CC1)NO [Example I-215, (E)-3-(2-(4-(1H-benzo[d][1,2,3]triazole-5-carbonyl)piperazin-1-yl)phenyl)-N-hydroxyacrylamide]
CC(C)N(Cc1cccc(C(F)(F)F)c1)c1ccccc1/C=C/C(=O)NO [Example I-216, (E)-N-hydroxy-3-(2-(isopropyl(3-(trifluoromethyl)benzyl)amino)phenyl)acrylamide]
O=C(/C=C/c1cccnc1CNc1ccc(-c2ccccc2)c(C(F)(F)F)c1)NO [Example I-217, (E)-N-hydroxy-3-(2-(((2-(trifluoromethyl)-[1,1′-biphenyl]-4-yl)amino)methyl)pyridin-3-yl)acrylamide]
Cc1nn(C)c(Cl)c1S(=O)(=O)NC1CCN(c2ccccc2/C=C/C(=O)NO)CC1 [Example I-218, (E)-3-(2-(4-((5-chloro-1,3-dimethyl-1H-pyrazole)-4-sulfonamido)piperidin-1-yl)phenyl)-N-hydroxyacrylamide]
Cc1noc(C)c1S(=O)(=O)NC1CCN(c2ccccc2/C=C/C(=O)NO)CC1 [Example I-220, (E)-3-(2-(4-((3,5-dimethylisoxazole)-4-sulfonamido)piperidin-1-yl)phenyl)-N-hydroxyacrylamide]
O=C(/C=C/c1ccccc1N1CCC(NS(=O)(=O)c2cccnc2)CC1)NO [Example I-221, (E)-N-hydroxy-3-(2-(4-(pyridine-3-sulfonamido)piperidin-1-yl)phenyl)acrylamide]
O=C(/C=C/c1ccccc1N1CCC(NS(=O)(=O)c2ccc(F)cc2)CC1)NO [Example I-222, (E)-3-(2-(4-((4-fluorophenyl)sulfonamido)piperidin-1-yl)phenyl)-N-hydroxyacrylamide]
O=C(/C=C/c1ccccc1N1CCC(NS(=O)(=O)c2ccc(Cl)cc2)CC1)NO [Example I-223, (E)-3-(2-(4-((4-chlorophenyl)sulfonamido)piperidin-1-yl)phenyl)-N-hydroxyacrylamide]
O=C(/C=C/c1ccccc1N1CCC(NS(=O)(=O)c2ccc(C(F)(F)F)cc2)CC1)NO [Example I-224, (E)-N-hydroxy-3-(2-(4-((4-(trifluoromethyl)phenyl)-sulfonamido)piperidin-1-yl)phenyl)acrylamide]
CC(C)c1ccc(S(=O)(=O)NC2CCN(c3ccccc3/C=C/C(=O)NO)CC2)cc1 [Example I-225, (E)-N-hydroxy-3-(2-(4-((4-isopropylphenyl)sulfon-amido)piperidin-1-yl)phenyl)acrylamide]
O=C(/C=C/c1ccccc1N1CCC(NS(=O)(=O)c2ccc(C(F)(F)F)nc2)CC1)NO [Example I-226, (E)-N-hydroxy-3-(2-(4-((6-(trifluoromethyl)pyridine)-3-sulfonamido)piperidin-1-yl)phenyl)acrylamide]
CCS(=O)(=O)NC1CCN(c2ccccc2/C=C/C(=O)NO)CC1 [Example I-227, (E)-3-(2-(4-(ethylsulfonamido)piperidin-1-yl)phenyl)-N-hydroxyacrylamide]
O=C(/C=C/c1ccccc1N1CCC(NS(=O)(=O)Cc2ccc(F)cc2)CC1)NO [Example I-228, (E)-3-(2-(4-(((4-fluorophenyl)methyl)sul-fonamido)piperidin-1-yl)phenyl)-N-hydroxyacrylamide]
O=C(/C=C/c1ccccc1N1CCC(NS(=O)(=O)Cc2cccc(Cl)c2)CC1)NO [Example I-229, (E)-3-(2-(4-(((3-chlorophenyl)methyl)sul-fonamido)piperidin-1-yl)phenyl)-N-hydroxyacrylamide]
Cn1ccnc1S(=O)(=O)NC1CCN(c2ccccc2C=CC(=O)NO)CC1 [Example I-230, (E)-N-hydroxy-3-(2-(4-((1-methyl-1H-imidazole)-2-sulfonamido)-piperidin-1-yl)phenyl)acrylamide]
O=C(/C=C/c1ccccc1N1CCC(NS(=O)(=O)c2ccc3c(c2)OCCO3)CC1)NO [Example I-231, (E)-3-(2-(4-((2,3-dihydrobenzo[b][1,4]dioxine)-6-sulfonamido)piperidin-1-yl)phenyl)-N-hydroxyacrylamide]
O=C(/C=C/c1ccccc1N1CCC(NS(=O)(=O)c2cccc3cnccc23)CC1)NO [Example I-232, (E)-N-hydroxy-3-(2-(4-(isoquinoline-5-sulfonamido)piperidin-1-yl)phenyl)acrylamide]
COc1ccc(S(=O)(=O)NC2CCN(c3ccccc3/C=C/C(=O)NO)CC2)cc1OC [Example I-233]
O=C(/C=C/c1ccccc1N1CCC(NS(=O)(=O)c2ccc(OC(F)F)cc2)CC1)NO [Example I-234, (E)-3-(2-(4-((4-(difluoromethoxy)phenyl)sulfonamido)piperidin-1-yl)phenyl)-N-hydroxyacrylamide]
O=C(/C=C/c1ccccc1N1CCC(NS(=O)(=O)Cc2cccc(F)c2)CC1)NO [Example I-235, (E)-3-(2-(4-(((3-fluorophenyl)methyl)sul-fonamido)piperidin-1-yl)phenyl)-N-hydroxyacrylamide]
O=C(/C=C/c1ccccc1N1CCC(NS(=O)(=O)c2ccc3c(c2)NC(=O)CO3)CC1)NO [Example I-236, (E)-N-hydroxy-3-(2-(4-((3-oxo-3,4-dihydro-2H-benzo[b][1,4]oxazine)-6-sulfonamido)piperidin-1-yl)phenyl)acrylamide]
Cn1cnc(S(=O)(=O)NC2CCN(c3ccccc3/C=C/C(=O)NO)CC2)c1 [Example I-237, (E)-N-hydroxy-3-(2-(4-((1-methyl-1H-imidazole)-4-sulfonamido)piperidin-1-yl)phenyl)acrylamide]
